Data set [1] has as its system Plasmodium falciparum. In words: NOVARTIS: Inhibition of Plasmodium falciparum W2 (drug-resistant) proliferation in erythrocyte-based infection assay. In kind it is functional, organism-based. The following applies: Plasmodium falciparum, W2; read-out: EC50.
The subject of data set [2] is Plasmodium falciparum. Nature of the data set: NOVARTIS: Inhibition of Plasmodium falciparum 3D7 (drug-susceptible) proliferation in erythrocyte-based infection assay. It counts as functional, organism-based. The following applies: Plasmodium falciparum, 3D7.
Data set [3] can be described thus: NOVARTIS: Cytotoxicity against human hepatocellular carcinoma cell line (Huh7). In kind it is toxicity, cell-based, Huh-7. Conditions: Huh7 cells (hepatocellular carcinoma cell line).

Bounds are passed on as bounds.

Regarding `CCOc1ccc(Nc2cc(C)nc(Nc3ccc(OCC)cc3)n2)cc1`, the values for the EC50 in the data set on Plasmodium falciparum [1] and in the data set with Plasmodium falciparum [2] were 124 nM and 104 nM, respectively. The half-maximal cytotoxic concentration (CC50) in data set [3] is 9850 nM.

As for `Cc1cc(Nc2ccccc2)nc(Nc2ccccc2)n1`, the results for the EC50 in the data set on Plasmodium falciparum [1] and in the data set with Plasmodium falciparum [2] were 248 nM and 259 nM, respectively. The compound also displayed a CC50 in data set [3] of 20000 nM.

In the case of `Nc1ccc2nc3ccc(N)cc3[s+]c2c1`, the EC50 in the data set with Plasmodium falciparum [1] was 143 nM; in the data set with Plasmodium falciparum [2], 85.7 nM. The same compound had a CC50 in data set [3] of 11600 nM.

In the case of `CCOc1ccc(C(=O)C(C)[n+]2cc(-c3ccc(Cl)cc3)n3c2CCC3)cc1` (stereo not drawn), the EC50 in the data set on Plasmodium falciparum [1] was 976 nM; with Plasmodium falciparum [2], 1500 nM. In addition, in data set [3], the CC50 was more than 78300 nM.

For the compound `O=c1[nH]c(SCC(O)c2ccc(Cl)c(Cl)c2)nc2sc3ccccc3c12` (stereo not drawn), the figures for the EC50 in the data set with Plasmodium falciparum [1] and with Plasmodium falciparum [2] were 124 nM and 663 nM, respectively. In data set [3], the CC50 was more than 10000 nM.

Take `CN1CCN=C1c1ccc(NC(=O)Nc2ccc(NC(=O)Nc3ccc(C4=NCCN4C)cc3)cc2)cc1`: the EC50 was 124 nM in the data set with Plasmodium falciparum [1] and 158 nM in the data set on Plasmodium falciparum [2]. Also, the CC50 in data set [3] is more than 10000 nM.

In the case of `Cc1ccc(-c2cc(N3CCCC3CO)n3nccc3n2)cc1` (stereo not drawn), the EC50 in the data set with Plasmodium falciparum [1] is 1250 nM; in the data set on Plasmodium falciparum [2], 1140 nM. Besides, in data set [3], the CC50 was more than 100000 nM.

Regarding `COc1ccc(CNCCN2CCN(c3ccc(C)cc3)C[C@@H]2c2ccccc2)cc1`, the EC50 with Plasmodium falciparum [1] was 125 nM; in the data set on Plasmodium falciparum [2], 909 nM. In data set [3], the CC50 is more than 10000 nM.

As to `COc1cc(OC)cc(C(=O)NCC2Cc3cc(Cl)cc(-c4ccncc4)c3O2)c1` (stereo not drawn), the EC50 with Plasmodium falciparum [1] is 537 nM; with Plasmodium falciparum [2], 368 nM. The same compound gave a CC50 in data set [3] of 44100 nM.

With `N#Cc1cccc(C=CC(=O)O)c1`, the EC50 in the data set on Plasmodium falciparum [1] is 1220 nM; in the data set on Plasmodium falciparum [2] it was more than 12500 nM. Besides, the CC50 in data set [3] is more than 100000 nM.

For the compound `COc1ccc2c(c1)-c1c(ssc1=S)C(C)(C)N2C(=O)c1cccc(Cl)c1`, the EC50 in the data set with Plasmodium falciparum [1] is more than 1250 nM; with Plasmodium falciparum [2], 1090 nM. The CC50 in data set [3] is more than 100000 nM.

For the compound `Cc1nc(-c2ccc[n+](C)c2)sc1C(=O)C=Cc1ccc(Cl)cc1`, the figures for the EC50 in the data set with Plasmodium falciparum [1] and in the data set on Plasmodium falciparum [2] were 797 nM and 341 nM, respectively. In data set [3], this compound registered a CC50 of 65200 nM.

As to `O=C1CSC2=NCN(c3cccc(Cl)c3)CN12`, the EC50 in the data set on Plasmodium falciparum [1] was 1260 nM; with Plasmodium falciparum [2] it was more than 12500 nM. In addition, the CC50 in data set [3] is more than 100000 nM.

For `CCCOC(=O)CSc1nc(N)c(C#N)c(-c2ccco2)c1C#N`, the EC50 in the data set with Plasmodium falciparum [1] worked out at 1220 nM; in the data set on Plasmodium falciparum [2], 1890 nM. Further, the CC50 in data set [3] was more than 100000 nM.

Take `COc1ccc(S(=O)(=O)N2CCCCC2C(=O)NC(CN2CCCC2)c2ccccc2)cc1` (stereo not drawn): the concentration for a half-maximal effect (EC50) in the data set with Plasmodium falciparum [1] was found to be 122 nM; in the data set on Plasmodium falciparum [2] it was 168 nM. Besides, in data set [3], the CC50 was more than 10000 nM.

As to `C1=C(c2ccccc2)CCN(c2ncnc3c2nc2n3CCCCC2)C1`, the EC50 in the data set with Plasmodium falciparum [1] turned out to be 1080 nM; with Plasmodium falciparum [2], 1290 nM. Moreover, in data set [3], the CC50 was more than 85800 nM.

Consider `CCN(CC)CCCNCC(=O)N1c2ccccc2Sc2ccccc21`, for which the concentration giving a half-maximal response (EC50) in the data set with Plasmodium falciparum [1] is 1250 nM; with Plasmodium falciparum [2], more than 12500 nM. Further, in data set [3], the CC50 was more than 100000 nM.

Turning to `Cc1ccc2nc(Nc3ncc4c(n3)CC(C)(C)CC4=O)nc(C)c2c1`, the EC50 is 1250 nM in the data set on Plasmodium falciparum [1] and more than 12500 nM in the data set with Plasmodium falciparum [2]. This compound registered a CC50 in data set [3] of more than 100000 nM.

As for `COc1ccc(Nc2nc(NCc3ccccc3)c3ccccc3n2)cc1`, the values for the EC50 with Plasmodium falciparum [1] and with Plasmodium falciparum [2] were 106 nM and 212 nM, respectively. The compound also yielded a CC50 in data set [3] of 8670 nM.

For `COc1cc(C(=O)NC(c2cccs2)c2cc(Cl)c3cccnc3c2O)cc(OC)c1OC` (stereo not drawn), the EC50 worked out at 1230 nM in the data set with Plasmodium falciparum [1] and 1490 nM in the data set on Plasmodium falciparum [2]. This compound had a CC50 in data set [3] of more than 100000 nM.

Take `O=C(Nc1ccc2oc(-c3ccccc3F)nc2c1)c1ccc([N+](=O)[O-])o1`: the EC50 is 1260 nM in the data set with Plasmodium falciparum [1] and more than 12500 nM in the data set on Plasmodium falciparum [2]. Besides, the CC50 in data set [3] is more than 100000 nM.

As to `Cc1ccc(Nc2cc(C)nc(NCc3ccccc3)n2)cc1`, the EC50 with Plasmodium falciparum [1] stood at 132 nM; with Plasmodium falciparum [2], 112 nM. In data set [3], this compound gave a CC50 of 10500 nM.

Turning to `Cc1ccc(-c2noc(C3CCN(C(=O)Nc4ccc(C#N)cc4)CC3)n2)o1`, the 50% effective concentration (EC50) was found to be 1260 nM in the data set with Plasmodium falciparum [1] and 1300 nM in the data set with Plasmodium falciparum [2]. In data set [3], the CC50 was more than 100000 nM.

Take `Cc1cc(C)c(S(=O)(=O)N2CCCC2CNC(=O)c2cccc([N+](=O)[O-])c2)c(C)c1` (stereo not drawn): the EC50 in the data set on Plasmodium falciparum [1] came out at 1230 nM; in the data set with Plasmodium falciparum [2], 914 nM. This compound also had a CC50 in data set [3] of more than 100000 nM.

With `O=[N+]([O-])c1cccc(C(Nc2nccs2)c2ccc3cccnc3c2O)c1` (stereo not drawn), the EC50 with Plasmodium falciparum [1] is 198 nM; with Plasmodium falciparum [2], 294 nM. Moreover, it took 16100 nM to reach half-maximal cytotoxicity in data set [3] (CC50).

Take `CCCc1c2ccc(C)n2cc[n+]1CC(=O)c1ccc(OC)cc1`: the values for the EC50 in the data set on Plasmodium falciparum [1] and with Plasmodium falciparum [2] were 1230 nM and 806 nM, respectively. For the same compound, the 50% cytotoxic concentration (CC50) in data set [3] is more than 100000 nM.

Regarding `CCOC(=O)C1=C(C)NC2=C(C(=O)CC(C)(C)C2)C1c1ccccn1` (stereo not drawn), the figures for the EC50 with Plasmodium falciparum [1] and in the data set on Plasmodium falciparum [2] were 1260 nM and more than 12500 nM, respectively. In addition, the CC50 in data set [3] is more than 100000 nM.

Take `Clc1cccc(Nc2nc(NCc3ccco3)c3ccccc3n2)c1`: the EC50 in the data set with Plasmodium falciparum [1] came to 203 nM; in the data set on Plasmodium falciparum [2] it was 112 nM. The compound further showed a CC50 in data set [3] of 16000 nM.

As for `COc1cccc(NC(=O)c2sc3ncn(CC(=O)N4CCN(c5ccccn5)CC4)c(=O)c3c2C)c1`, the EC50 is 1240 nM in the data set on Plasmodium falciparum [1] and more than 12500 nM in the data set with Plasmodium falciparum [2]. This compound also yielded a CC50 in data set [3] of more than 100000 nM.

Regarding `COc1ccc(N)cc1NC(=O)c1ccc(Cl)cc1Cl`, the EC50 is 87.9 nM with Plasmodium falciparum [1] and more than 890 nM in the data set on Plasmodium falciparum [2]. Moreover, half-maximal cytotoxicity in data set [3] (CC50) was put at 6990 nM.

`CCCSc1nc(N)c2c3c(sc2n1)CN(CCC)CC3`: the results for the EC50 in the data set on Plasmodium falciparum [1] and in the data set on Plasmodium falciparum [2] were 1230 nM and 1420 nM, respectively. Also, in data set [3], the CC50 is more than 100000 nM.

With `CCOC(=O)c1cnc2ccc(OC)cc2c1Cl`, the EC50 came to 1250 nM with Plasmodium falciparum [1] and 2760 nM in the data set with Plasmodium falciparum [2]. This compound also returned a half-maximal cytotoxic concentration (CC50) in data set [3] of more than 100000 nM.

Regarding `CCOC(=O)C1CCN(C(=S)Nc2ccc3nsnc3c2)CC1`, the EC50 in the data set on Plasmodium falciparum [1] was 370 nM; with Plasmodium falciparum [2] it was 347 nM. This compound also displayed a CC50 in data set [3] of 30300 nM.

Consider `CCC(C)NC(=O)c1cc(NC(=O)c2cccc(Cl)c2)ccc1N1CCCCC1` (stereo not drawn), for which the EC50 with Plasmodium falciparum [1] is 194 nM; in the data set with Plasmodium falciparum [2], more than 1610 nM. This compound also gave a CC50 in data set [3] of 15400 nM.

In the case of `COc1ccccc1C(NC(=O)c1cc(OC)c(OC)c(OC)c1)c1cc(Cl)c2cccnc2c1O` (stereo not drawn), the EC50 stood at 1230 nM in the data set on Plasmodium falciparum [1] and 2200 nM with Plasmodium falciparum [2]. Besides, in data set [3], the CC50 was more than 100000 nM.

Regarding `CCOC(=O)c1ccc(NC(=O)c2ccc(S(=O)(=O)N3CC(C)CC(C)C3)cc2)cc1` (stereo not drawn), the EC50 worked out at 1240 nM in the data set with Plasmodium falciparum [1] and 666 nM in the data set with Plasmodium falciparum [2]. In addition, in data set [3], the CC50 was more than 100000 nM.

Regarding `O=c1c2cnn(-c3ccccc3)c2nc(-c2ccccc2F)n1-c1ccc(Br)cc1`, the EC50 in the data set with Plasmodium falciparum [1] stood at 1230 nM; in the data set on Plasmodium falciparum [2] it was 6790 nM. In data set [3], this compound registered a CC50 of more than 100000 nM.

For the compound `COc1cccc(Cn2c(C)nc3cc(NC(=O)Nc4ccccc4)c(C)nc32)c1`, the figures for the EC50 in the data set with Plasmodium falciparum [1] and in the data set on Plasmodium falciparum [2] were 163 nM and more than 443 nM, respectively. The same compound came in with a CC50 in data set [3] of more than 13100 nM.

For the compound `CCN1CCN(c2c(C(=O)c3ccccc3)cnc3cc(OC)c(OC)cc23)CC1`, the EC50 was 1220 nM in the data set with Plasmodium falciparum [1] and 3020 nM in the data set with Plasmodium falciparum [2]. The compound also showed a CC50 in data set [3] of more than 100000 nM.

`CN(C)c1ccc(C=NNc2ncnc3nc[nH]c23)cc1`: the EC50 stood at 138 nM with Plasmodium falciparum [1] and 167 nM in the data set on Plasmodium falciparum [2]. Moreover, the half-maximal cytotoxic concentration (CC50) in data set [3] came out at 11000 nM.

Regarding `COc1ccc(-c2noc(N3CCc4ccccc4C3)n2)cc1`, the values for the EC50 with Plasmodium falciparum [1] and in the data set on Plasmodium falciparum [2] were 125 nM and 200 nM, respectively. Also, the CC50 in data set [3] is more than 10000 nM.

The values above are taken from ChEMBL document CHEMBL1156829 (Proc Natl Acad Sci U S A, 2008).
